This is an account of results in ChEMBL document CHEMBL3507680, “University of Dundee, Gates Library screen for HepG2 cell viability”.

Each structure is given as a SMILES string.

A short description of the data set: Human HepG2 cell viability assay in 384 well format. Also noted: dose 125 nL, time 70.5 hour; cytotoxicity at 70.5 h: concentration not given beside the values. As to conditions: HepG2 cells, read-out: Inhibition. The format is toxicity, cell-based.
For `Cc1ccc(-c2nnc(CN3CCCCC3Cn3cncn3)o2)cc1` (stereo not drawn), the cytotoxicity at 70.5 h is -12.6%.

As to `Cc1cc(C(=O)NC2CCCCNC2=O)c(=O)[nH]c1C` (stereo not drawn), the cytotoxicity at 70.5 h is -6.38%.

For `COc1ccccc1C(=O)N1CCN(C(=O)Cc2ccccn2)CC1`, the cytotoxicity at 70.5 h is -6.85%.

As for `CCOc1ccc(Cl)c(C(=O)N2CCN(CC(C)(C)O)CC2)n1`, the cytotoxicity at 70.5 h is -12.6%.

Turning to `Cc1ccc(C(=O)N2CCC(c3noc(-c4cccnc4)n3)CC2)cn1`, the cytotoxicity at 70.5 h was -3.32%.

Consider `O=C(c1ccccc1)N1CCS(=O)(=O)[C@@H]2CCNCC[C@@H]21`, for which the cytotoxicity at 70.5 h was 3.07%.

With `O=C1N(c2cncnc2)CCC12CCCN(Cc1ccccn1)C2` (stereo not drawn), the cytotoxicity at 70.5 h is -9.94%.

Regarding `CN(C)[C@H]1CCN(c2ccnc(C(=O)NCc3ccco3)c2)C1`, the cytotoxicity at 70.5 h was -5.04%.

`COc1ccc(F)cc1C(=O)C1CCCN(Cc2ccc(C)s2)C1` (stereo not drawn): the cytotoxicity at 70.5 h is -12.9%.

Turning to `CCNc1cc2c(nn1)CCN(C(=O)c1ccc(-n3cccn3)nc1)C2`, the cytotoxicity at 70.5 h was -15.9%.

For `CCC1=N[C@@]2(CC[C@@H]3CN(Cc4cccc(Cl)c4)C[C@@H]32)C(=O)N1C`, the cytotoxicity at 70.5 h came out at 16.7%.

In the case of `Cc1cnn(C2CN(Cc3noc(C)n3)C2)c1`, the cytotoxicity at 70.5 h was -6.5%.

Turning to `CC1c2ncc(Cn3cccn3)n2CCN1S(=O)(=O)C1CC1` (stereo not drawn), the cytotoxicity at 70.5 h was -5.83%.

For `O=c1c2cnc(N3CCOCC3)nc2ccn1-c1ccccc1`, the cytotoxicity at 70.5 h was -7.35%.

On to `Fc1cccc2c1CCC2NCc1ccc(N2CCOCC2)cc1` (stereo not drawn), for which the cytotoxicity at 70.5 h was 1.27%.

`CCOCCC(=O)Nc1cc(C)cnc1OC`: the cytotoxicity at 70.5 h came to 14.7%.

Take `Cc1cc(CN2CCN(c3ccnc(-c4ccccc4)n3)CC2)no1`: the cytotoxicity at 70.5 h was -4.67%.

On to `CC(C)CN1C(=O)CC[C@H]2CN(C(=O)Cn3ccccc3=O)CC[C@H]21`, for which the cytotoxicity at 70.5 h was -0.419%.

On to `Cc1nc(C)c(C(=O)N2CCc3nc4sc(C)cc4c(=O)n3CC2)o1`, for which the cytotoxicity at 70.5 h is -4.92%.

On to `CC(C)[C@H]1CN(C2Cc3ccccc3C2)C[C@@H]1NS(=O)(=O)N(C)C`, for which the cytotoxicity at 70.5 h stood at 0.396%.

As for `CCn1ccnc1CN1CCCN(C(=O)Cn2nc(C)cc2C)CC1`, the cytotoxicity at 70.5 h was -19.3%.

Regarding `Cc1ccc2nc(C3CCCN(Cc4ccccc4)C3)nc(O)c2c1` (stereo not drawn), the cytotoxicity at 70.5 h worked out at 0.432%.

Take `O=C(O)c1coc(COc2cccc(F)c2)n1`: the cytotoxicity at 70.5 h was -4.11%.

`CC(=O)N1CCc2c(nc(N(C)C)nc2N(C)CCO)C1`: the cytotoxicity at 70.5 h was -2.49%.

Take `CC[C@@H]1N(CC2CC2)CCC[C@]12CCC(=O)N2`: the cytotoxicity at 70.5 h is -1.41%.

`CCOCCCNC(=O)C(NC(=O)Cc1cccs1)c1ccccc1` (stereo not drawn): the cytotoxicity at 70.5 h stood at 4.71%.

Take `CSCC[C@H](NC(=O)Cn1ccc2c(Br)cccc21)C(=O)O`: the cytotoxicity at 70.5 h is -21.8%.

With `O=C(NC1CCN(Cn2nc(-c3ccccc3)oc2=O)CC1)C1CC1`, the cytotoxicity at 70.5 h turned out to be 1.77%.

For `Cn1cccc1C(=O)N1CCN(Cc2cccnc2)c2ncccc2C1`, the cytotoxicity at 70.5 h was -8.24%.

With `CC(C)CCOc1ccc(C(C)NC(=O)CSCC(N)=O)cc1` (stereo not drawn), the cytotoxicity at 70.5 h was -8.07%.

On to `Cc1ccc(CN(C)C(=O)Cn2nc(-c3ccc(F)cc3)oc2=O)cc1`, for which the cytotoxicity at 70.5 h is -7.04%.

As for `CC(C)c1ncc2c(n1)CN(Cc1nc(Cc3ccccc3)no1)CC2`, the cytotoxicity at 70.5 h is -24.3%.

`CCNC(=O)CCC(=O)Nc1nc(C)c(Cc2ccc(F)cc2)s1`: the cytotoxicity at 70.5 h was -1.26%.

Regarding `CC1(C)CC(=O)c2cnc3nc(N4CCCC4)[nH]c(=O)c3c2C1`, the cytotoxicity at 70.5 h was -10.4%.

Take `O=C(NC1CCCC1)c1ccnc(C2CCNCC2)c1`: the cytotoxicity at 70.5 h is -1.39%.

As to `CN1CC(=O)N(c2ccccc2)CC12CCN(Cc1nccn1C)C2` (stereo not drawn), the cytotoxicity at 70.5 h was determined as 4.89%.

In the case of `OC(COCc1ccccc1)CN1CCC(c2ccn[nH]2)CC1` (stereo not drawn), the cytotoxicity at 70.5 h amounted to 19.6%.

As to `COc1ccnc(NCc2ccccc2Cn2cccn2)n1`, the cytotoxicity at 70.5 h is -1.62%.

With `c1ccc(O[C@H]2COCCN(Cc3cccc4c3OCO4)C2)cc1`, the cytotoxicity at 70.5 h was -1.37%.

For `CC1=N[C@@]2(CC[C@@H]3CN(CC(=O)N(C)C)C[C@@H]32)C(=O)N1CC1CC1`, the cytotoxicity at 70.5 h was -2.19%.

`O=C(c1cscn1)N1CCc2ncnc(-c3cccnc3)c2CC1`: the cytotoxicity at 70.5 h worked out at 18.5%.

In the case of `O=S(=O)(NC[C@H]1C[C@@H]2CCN1C[C@@H]2CN1CCCC1)c1ccc(Cl)cc1`, the cytotoxicity at 70.5 h is 17%.

Take `COc1cccc(CC2CN(C3CCN(C(C)=O)CC3)CCO2)c1` (stereo not drawn): the cytotoxicity at 70.5 h is -5.79%.

Regarding `COCC(=O)N1CCC2(CC1)CN(c1ncccn1)CCO2`, the cytotoxicity at 70.5 h is -10.1%.

Take `O=C(NCCNc1ncccn1)C1CC(=O)N(C2CCCC2)C1` (stereo not drawn): the cytotoxicity at 70.5 h was -6.36%.

Consider `COc1ccc(CCN(C)CCS(=O)(=O)c2ccc(Cl)cc2)cc1OC`, for which the cytotoxicity at 70.5 h is -13.8%.

As to `O=C(C1CCC1)N1C[C@H]2CNC[C@H]2C1`, the cytotoxicity at 70.5 h was 13.3%.

Take `CCn1nnc2c1CCN(C(=O)c1ccc3c(c1)OCO3)C2COC` (stereo not drawn): the cytotoxicity at 70.5 h was 10.7%.

Turning to `COc1cc(CCC(=O)NC(C)(C)C)ccc1OCC(F)(F)F`, the cytotoxicity at 70.5 h is -9.72%.

`Cc1cccc(OCCN2CCCC(c3cc(C(N)=O)[nH]n3)C2)c1` (stereo not drawn): the cytotoxicity at 70.5 h was -7.94%.

Consider `CS(=O)(=O)NCCCNC(=O)c1cccnc1O`, for which the cytotoxicity at 70.5 h was -4.43%.

Take `CCCN1C[C@H]2CC[C@@H]1CN(Cc1ccc(Cn3cccn3)cc1)C2`: the cytotoxicity at 70.5 h was -7.61%.

With `Cc1[nH]ncc1C(=O)N1CCCN(Cc2nccn2C(C)C)CC1`, the cytotoxicity at 70.5 h was -1.07%.

As for `CC(C)c1nn(C)c(N(C)C)c1CNCc1ccccc1CO`, the cytotoxicity at 70.5 h was determined as 0.684%.

On to `COCCN(C)C[C@@H]1CN(C(=O)c2c(C)cccc2OC)C[C@@H]1CO`, for which the cytotoxicity at 70.5 h is -4.17%.

Regarding `c1cc(C2CN(C3CCCCC3)C2)n[nH]1`, the cytotoxicity at 70.5 h is 17.8%.

In the case of `COc1cc(N2CC[C@@H]3O[C@@H](C(=O)NC(C)C)C[C@@H]32)ncn1`, the cytotoxicity at 70.5 h was -8.65%.

`CC[C@@H](CO)NC(=O)c1cccc(CCC(C)(C)O)c1`: the cytotoxicity at 70.5 h was -6.14%.

In the case of `CC(Oc1ccc2c(c1)OCO2)C(=O)N1CCC(c2ncc[nH]2)CC1` (stereo not drawn), the cytotoxicity at 70.5 h is -8.64%.

Take `CC(O)CNc1c(NCc2ccco2)c(=O)c1=O` (stereo not drawn): the cytotoxicity at 70.5 h was -9.21%.

In the case of `CN(C)[C@@H]1CN(Cc2cnn(C)c2)[C@@H]2COC[C@H]12`, the cytotoxicity at 70.5 h was determined as 7.8%.

Turning to `CC(C)=CCN1C(=O)[C@H]2CC[C@@H]1CN(c1ncccc1F)C2`, the cytotoxicity at 70.5 h is -22.9%.

For the molecule `c1nc2c(c(NC3COC4(CCCC4)C3)n1)CCNCC2` (stereo not drawn), the cytotoxicity at 70.5 h was -5.17%.

Turning to `COC[C@@H]1CCCN1C(=O)c1cc(-c2cccc(OC)c2)n[nH]1`, the cytotoxicity at 70.5 h is -2.07%.

Turning to `Cn1cc(-c2csc(N3CCN(c4nccs4)CC3)n2)cn1`, the cytotoxicity at 70.5 h was -0.763%.

Turning to `Cc1ccc(CNC(=O)CN(C)CC2CCN(CCO)CC2)s1`, the cytotoxicity at 70.5 h amounted to 2.24%.

As for `Cc1cc(NC(=O)Cn2cc(C#N)c(=O)c3cc(Br)ccc32)no1`, the cytotoxicity at 70.5 h was 0.537%.

On to `O=C1CCCN1CCCNCc1cc(O)c2cccc(F)c2n1`, for which the cytotoxicity at 70.5 h was -3.49%.

Take `CC(CNC(=O)c1ccco1)N1CCc2sccc2C1` (stereo not drawn): the cytotoxicity at 70.5 h is -4.45%.

For `Cc1nc(-c2cccc(C(=O)O)c2)c[nH]1`, the cytotoxicity at 70.5 h came out at 15.3%.

`COc1cccc(N2CCC(N3C[C@@H](NC(C)=O)[C@H](C(C)C)C3)CC2)c1`: the cytotoxicity at 70.5 h was -6.54%.

Take `COCC(O)CN1CCC(=O)N(Cc2ccccc2)Cc2ccccc21` (stereo not drawn): the cytotoxicity at 70.5 h is -5.42%.

Turning to `CC(O)CN1CCN(C(=O)c2cnn(-c3ccc(Cl)cc3)c2)CC1` (stereo not drawn), the cytotoxicity at 70.5 h is -5.02%.

As for `Cc1nccn1CC1CCCN(C(=O)Cc2ccsc2)C1` (stereo not drawn), the cytotoxicity at 70.5 h was -17.7%.

In the case of `Cc1noc(C)c1C(=O)N1CCCC1(C)C(=O)NC1CCCC1` (stereo not drawn), the cytotoxicity at 70.5 h was -10.2%.

In the case of `COc1ncccc1C(=O)N1CCCC1c1c(C)n[nH]c1C` (stereo not drawn), the cytotoxicity at 70.5 h turned out to be 37.5%.

On to `CC(C)NC(=O)C1CCc2nnc(CNC(=O)C3CC3)n21` (stereo not drawn), for which the cytotoxicity at 70.5 h is -6.43%.

Turning to `OCC1CCCN1c1cc(NCCc2c[nH]c3ccccc23)ncn1` (stereo not drawn), the cytotoxicity at 70.5 h was determined as 1.16%.

Turning to `COc1ncccc1C(=O)N1CCCC(c2cc(C)[nH]n2)C1` (stereo not drawn), the cytotoxicity at 70.5 h is -2.72%.

As for `O=C1CCCN1CCN1CCC(c2ccn[nH]2)CC1`, the cytotoxicity at 70.5 h was -7.63%.

For `NC(=O)c1ccc(CNC(=O)NCc2cc[nH]n2)cc1`, the cytotoxicity at 70.5 h was -12.2%.

In the case of `CCS(=O)(=O)Nc1ccn(Cc2ccc(F)cc2Cl)n1`, the cytotoxicity at 70.5 h was -8.72%.

As for `Cc1cnn(CC2CCCCN2C(=O)Cc2csc(C)n2)c1` (stereo not drawn), the cytotoxicity at 70.5 h is -7.78%.

In the case of `O=C(CC1=CCCCC1)N1CCC(Cn2cc(CCO)nn2)CC1`, the cytotoxicity at 70.5 h is -11.5%.

Regarding `CCc1nc(CC(=O)N2CCCCC2Cn2cccn2)cs1` (stereo not drawn), the cytotoxicity at 70.5 h was 19%.

`Cc1cc(C)n(C2CCCN(C(=O)c3ccn(C)c(=O)c3)C2)n1` (stereo not drawn): the cytotoxicity at 70.5 h is -9.18%.

Turning to `CN1CC(C(=O)NC2(c3ccc(Cl)cc3)CCOCC2)CC1=O` (stereo not drawn), the cytotoxicity at 70.5 h worked out at 2.23%.

Consider `COCc1noc(Cn2c(C3CC3)nc3ccccc32)n1`, for which the cytotoxicity at 70.5 h is 21.1%.

In the case of `Cn1cccc1C(=O)N1CCC2(CCCN(CC3CC3)C2=O)C1` (stereo not drawn), the cytotoxicity at 70.5 h was -4.86%.

With `CCN(CC)C(=O)CSc1nc2nc(C)ccc2o1`, the cytotoxicity at 70.5 h was found to be 11.9%.

Consider `COc1ccnc(N2CCN(CC(O)CN3CCOCC3)CC2)n1` (stereo not drawn), for which the cytotoxicity at 70.5 h is -8.1%.

Regarding `Cc1cnn(CCNCc2csc(-c3ccccc3)n2)c1`, the cytotoxicity at 70.5 h stood at 15.6%.

On to `COc1ccccc1-n1cc(C(=O)NCCCn2nc(C)nc2C)cn1`, for which the cytotoxicity at 70.5 h was -9.68%.

On to `O=C(NCC1CCN(c2ccncc2)CC1)C(O)c1ccccc1` (stereo not drawn), for which the cytotoxicity at 70.5 h was determined as 7.47%.

For `CC(C)N(C)C(=O)Cn1ncc(N(C)CCc2ccccc2)cc1=O`, the cytotoxicity at 70.5 h is -3.47%.

In the case of `COc1cc(CN[C@@H]2COC[C@H]2Cc2cc(C)no2)cc(OC)c1`, the cytotoxicity at 70.5 h was -6.2%.

Take `c1cn(-c2ccc(CN3CCOC(Cn4cncn4)C3)cc2)cn1` (stereo not drawn): the cytotoxicity at 70.5 h is -7.67%.

Consider `CCOc1ccc(NC(=O)c2scnc2CC)cc1CO`, for which the cytotoxicity at 70.5 h is 1.88%.
